Eight molecules from US20130012479A1, “POLYMORPHS OF 6-(PIPERIDIN-4-YLOXY)-2H-ISOQUINOLIN-1-ONE HYDROCHLORIDE” (SANOFI, priority 2011, published 2013) can be followed below.

Entries after “also recorded” stand apart in the source; their conditions may differ. Structures can show the parent of a compound that is named as a salt.

Holding throughout (format): physicochemical
The nature of data set [1]: Temperature-resolved XRPD, DSC and TGA on heating. The following applies: for solid-solid transition prior to melting: on heating. As for the experimental part:
In this temperature range, transformation to phase 3 was observed as determined by XRPD.
(§1) All X-ray powder diffraction was performed with Stoe Stadi-P transmission diffractometers using CuKα1 radiation (Lambda is 1.54060 Angström). For room temperature powder diffraction, linear position sensitive detectors were used while for temperature-resolved XRPD image plate position sensitive detectors (IP-PSDs) were used. Unless stated otherwise, X-ray powder diffraction was performed at room temperature. Dry samples were investigated in a flat preparation whereas suspensions were investigated in quartz glass capillaries. The measured data were evaluated and plotted with the Software WinXPOW V2.12.
The thermogravimetric analyses were performed with a METTLER TGA851e (module TGA/SDTA851e/SF1100/042). 100 μl Al crucibles sealed with lid were used. The sample changer punches a pinhole into the lid immediately before the start of the measurement. The oven cell is purged with a nitrogen gas flow of about 50 mL/min. The measurements typically start with a hold time of about 25 min at 25° C., followed by heating of the sample with a rate of 10°/min.
All DSC measurements were performed with a Mettler DSC822e (module DSC822e/700/109/414935/0025). If not indicated differently, 40 μl Al crucibles with sealed lid and hole were used. All measurements were carried out in a nitrogen gas flow of 50 mL/minute. The heating rate was 10° C./minute unless indicated otherwise. Temperature and heat flow were calibrated via the melting peak of an indium reference

Data set [2] in a line: Dynamic vapor sorption (DVS) water vapor sorption and desorption isotherms. The following applies: 25° C. As for the experimental part:
Moreover, the dihydrate may also be characterized by its DVS (dynamic vapor sorption) water vapor sorption and desorption isotherms measured at 25° C. as shown in FIG. 3. Before starting the sorption cycle the dihydrate sample is treated with dry nitrogen gas resulting in a transformation into phase 2 as shown by humidity resolved XRPD. […] A weight loss starts below 20% relative humidity and becomes strong below 10%, especially below 5%. The change in mass at low relative humidity is completely reversible and when the humidity increases again, the rehydration proceeds rapidly with small samples. However, for bulk samples rehydration of over-dried samples can take considerably longer and rehydration may require several days. Almost identical water sorption and desorption isotherms are observed at 40° C.
Moreover, phase 3 may also be characterized by its DVS (dynamic vapor sorption) water vapor sorption and desorption isotherms measured at 25° C. […] With decreasing humidity the dihydrate converts back at low humidity (below about 10% r.h.) into phase 2 (cycle 1, desorption). Phase 2 then converts into the dihydrate with increasing humidity and along the same isotherm it converts back with decreasing humidity into polymorph 2 (cycle 2, see also FIG. 3)
Moisture sorption/desorption isotherms were recorded on a DVS-1 from Surface Measurement Systems. […] Typical total measurement times for both cycles are about 20-30 hours.

A short description of data set [3]: Drying of the dihydrate, retention of crystal structure. The following applies: dihydrate dried. The source says: In a further embodiment of the hydrate the water content is 11.4% (w/w). In a further embodiment the hydrate contains 2.0 molecules water per molecule (I). Although the hydrate phase typically contains about 10-12.5% water it can also occur with lower water content. The crystal structure of the hydrate remains even if the dihydrate is dried and the remaining water content is down to about 3%. Water uptake is reversible if humidity in the environment is raised again. The water content in the isolated product depends on the drying conditions used during work up of the hydrate after crystallisation.

Data set [4] can be described thus: Storage under usual storage conditions (25° C./65% relative humidity). An excerpt:
Moreover, the corresponding amorphous material is hygroscopic and the water content varies much stronger with the relative humidity compared to the dihydrate. This water uptake and variability in water content makes precise dosing during drug product manufacturing difficult. […] Accordingly, the crystalline dihydrate is therefore the preferred solid form for drug product manufacturing.

The nature of data set [5]: Humidity-controlled (humidity-resolved) XRPD in a humidity chamber. The following applies: for time until transformation into the dihydrate at 95% relative humidity: sample held at 95% r.h. As for the experimental part: When humidity-controlled XRPD was performed at 25 and 40° C., widely identical results were obtained.
Exposure to elevated humidity causes transformation to the dihydrate as determined with humidity-controlled XRPD performed at 25° C. […] Phase 1 transformed into the dihydrate after about 15 min at 95%, which in turn changed to phase 2 after about 40 min at 2% r.h.
Exposure to elevated humidity causes transformation to the dihydrate as determined by humidity-controlled XRPD at 25° C. […] As a result phase 3 transformed into the hydrate after about 30 min at 95%, which in turn changed to phase 2 after about 30 min at 2% r.h.
Exposure to elevated humidity causes transformation to the dihydrate as determined by humidity-controlled XRPD. […] As a result phase 4 transformed into the dihydrate after about 15 min at 95%, which in turn changed to phase 2 after about 20 min at 2% r.h.
as §1

Data set [6] in a line: Maturation experiments (slurry conversion) of suspensions. The following applies: for solid phase after maturation: 20° C., 35 days; for relative stability of the phase from maturation experiments: suspensions of phase mixtures in dry organic solvents, temperature range from 0 to 40° C. As for the experimental part:
By maturation experiments (slurry conversion) at the given temperature the relative stability of the polymorphs of compound (I) and the hydrate was investigated.
The following maturation experiment was performed by stirring the suspension under the specified conditions, starting from the dihydrate. The sample was investigated by XRPD in suspension, after vacuum filtration as well as after drying over night at 40° C. in vacuum (<50 mbar). The isolated material was also investigated by DSC and TGA.
a) Maturation of 0.210 g dihydrate of compound (I) in 0.4 mL of water at 20° C. for 35 days. Similar, maturation of the dihydrate was done in water/methanol (vol/vol 1:1) and in water/ethanol (vol/vol 1:1).
The following maturation experiments were performed by stirring the suspension under the specified conditions and isolating the solid by vacuum filtration, starting from dihydrate of compound (I). The sample was investigated by XRPD in suspension, after vacuum filtration as well as after drying. The isolated material was also investigated by DSC and TGA.
(b) Maturation of 0.203 g of dihydrate of compound (I) in 1.2 mL of methanol at 20° C. for 35 days. (c) Maturation was also done as in (b) by using ethanol, 1-propanol or 2-propanol.
The following maturation experiments of suspensions of phase mixtures of the dihydrate of compound (I) and phases consisting of polymorphs 1, 3 and 4 were performed at 0, 20 and 40° C. The product was isolated by vacuum filtration and analyzed after drying.
e) Maturation of a mixture of 0.3 mg phase 1, 23.9 mg phase 3, 29.9 mg phase 4 and 27.9 mg of the dihydrate in 0.7 mL 2-propanol at 0° C. for 2 weeks. f) Maturation of a mixture of 0.3 mg phase 1, 27.2 mg phase 3, 18.1 mg phase 4 and 29.6 mg of the dihydrate in 2.0 mL 2-butanol at 0° C. for 2 weeks. g) Similar experiments as in e) and f) were done with corresponding mixtures of phase 1, phase 3, phase 4 and the dihydrate in 2-propanol and 2-butanol at 20° C. and at 40° C., respectively

Data set [7] can be described thus: Stability of the solvate outside the mother liquor. The note with it: in the presence of humidity starts to transform to the hydrate. An excerpt:
Thus, a further aspect of the present invention relates to the use of the methyl acetate solvate of compound (I) for the production of the hydrate, for example by subjecting it to conditions, such as an elevated temperature and/or humidity which facilitate the loss of methyl acetate and attracting water.

Data set [8] in a line: Suspension in water, phase transformation. As for the experimental part: (§2) Also storage of phase 3 at 20° C. and 75% relative humidity caused complete conversion to the dihydrate within 3 weeks. The rate of conversion correlates with the relative humidity. When suspended in water, complete transformation into the dihydrate was observed almost immediately (<10 min).
A short description of data set [9]: Storage at 20° C. and 75% relative humidity. As for the experimental part: Also storage of phase 1 at 20° C. and 75% relative humidity caused complete conversion to the dihydrate within 3 weeks. The rate of conversion correlates with the relative humidity.
as §2
Also storage of phase 4 at 20° C. and 75% relative humidity caused complete conversion to the dihydrate within 3 weeks. The rate of conversion apparently correlates with the relative humidity.

The mark [10] stands for this setting: listed as phase 1, hydrochloride.
The mark [11] stands for this setting: listed as phase 3, hydrochloride.
Where [12] appears, read: listed as phase 4, hydrochloride.

On to `O=c1[nH]ccc2cc(OC3CCNCC3)ccc12` [1,4-dioxane solvate, 6-(Piperidin-4-yloxy)-2H-isoquinolin-1-one hydrochloride×0.5 1,4-dioxane solvate], for which the “stability of the solvate on heating” value in data set [1] is reported as “relatively stable”.

In the case of `O=c1[nH]ccc2cc(OC3CCNCC3)ccc12` [amorphous material, 6-(Piperidin-4-yloxy)-2H-isoquinolin-1-one hydrochloride], the “hygroscopicity / water content as a function of relative humidity” value in data set [2] (hydrochloride) is listed as “hygroscopic”.

As for `O=c1[nH]ccc2cc(OC3CCNCC3)ccc12` [dihydrate, 6-(Piperidin-4-yloxy)-2H-isoquinolin-1-one hydrochloride dihydrate], the “remaining water content down to which the crystal structure of the hydrate remains” value in data set [3] is on record as “about 3%”. Moreover, the “stability under usual storage conditions” value in [4] is reported as “stable for more than two years”. Moreover, in data set [4] (more than two years), the decomposition on storage entry is given as “no detectable decomposition”. Besides, the “temperature below which the form is stable” value in data set [1] was “below 90 °C”. The “temperature at which transformation to phase 3 starts” value in data set [1] (temperature-resolved XRPD, on heating with loss of water) is “about 90 °C”. Besides, the “relative humidity at which reversible transformation into phase 2 was observed” value in [5] (25 and 40° C.) was found to be 2%. The “time until the dihydrate changed to phase 2 at 2% r.h.” value in data set [5] (sample held at 2% r.h., hydrochloride dihydrate) was “about 30 min”. Also, the “solid phase after maturation” value in data set [6] (2-butanol, after drying) was “Polymorph 4 was obtained”; in data set [6] (methanol, ethanol, 1-propanol or 2-propanol), “polymorph 3 was obtained”; in data set [6] (water, water/methanol (1:1) or water/ethanol (1:1)), “remained as dihydrate”. For the same molecule, the “relative humidity below which the dihydrate converts into phase 2” value in data set [2] (cycle 1, desorption) is “below 10%”. Also, the “relative humidity below which weight loss starts” value in [2] (desorption cycle) is given as “below 20%”. Further, the “hygroscopicity / water content as a function of relative humidity” value in [2] (hydrochloride dihydrate) is “quite constant water content”. For the same molecule, the “water content in the desorption cycle” value in [2] (relative humidities between 95% and 20%) is listed as “almost constant”.

As to `O=c1[nH]ccc2cc(OC3CCNCC3)ccc12` [methyl acetate solvate, 6-(Piperidin-4-yloxy)-2H-isoquinolin-1-one hydrochloride], the “stability of the solvate outside the mother liquor” value in [7] is on record as “only moderately stable”.

Take `O=c1[nH]ccc2cc(OC3CCNCC3)ccc12` [polymorph 1, 6-(Piperidin-4-yloxy)-2H-isoquinolin-1-one hydrochloride]: the “solid-solid transition prior to melting” value in data set [1] (setting [10]) is “melted without preceding solid-solid transitions; also recorded: No transformation into another crystalline phase”. Besides, in data set [5] (listed as Phase 1, hydrochloride), the “time until transformation into the dihydrate at 95% relative humidity” value is recorded as “about 15 min”. Besides, in data set [6] (setting [10]), the “relative stability of the phase from maturation experiments” value (“relative stability of the phase” for short) was “only a metastable polymorph”.

`O=c1[nH]ccc2cc(OC3CCNCC3)ccc12` [polymorph 2, 6-(Piperidin-4-yloxy)-2H-isoquinolin-1-one hydrochloride]: in data set [1] (listed as phase 2, hydrochloride), the “solid-solid transition prior to melting” value is recorded as “melted without preceding solid-solid transitions”.

Consider `O=c1[nH]ccc2cc(OC3CCNCC3)ccc12` [polymorph 3, 6-(Piperidin-4-yloxy)-2H-isoquinolin-1-one hydrochloride], for which the “time to complete transformation into the dihydrate when suspended in water” value in data set [8] is less than 10 min. Also, the “solid-solid transition prior to melting” value in data set [1] (setting [11]) is recorded as “melted without preceding solid-solid transitions; also recorded: No transformation into another crystalline phase”. Further, the “time until transformation into the dihydrate at 95% relative humidity” value in data set [5] (setting [11]) is reported as “about 30 min”. Further, the “relative stability at low relative humidity” value in data set [6] (at and around room temperature, less than about 10% relative humidity) is “the most stable phase”. In data set [6] (setting [11]), the “relative stability of the phase” value is “the most stable anhydrous phase; also recorded: thermodynamically most stable anhydrous form”. Also, the “relative humidity above which the phase changed into the dihydrate” value in [2] (cycle 1, sorption) is given as “above 80%”.

In the case of `O=c1[nH]ccc2cc(OC3CCNCC3)ccc12` [polymorph 4, 6-(Piperidin-4-yloxy)-2H-isoquinolin-1-one hydrochloride], the “solid-solid transition prior to melting” value in data set [1] (setting [12]) was “No transformation into another crystalline phase 1, 2 or 3; also recorded: melted without preceding solid-solid transitions”. Moreover, the “time until transformation into the dihydrate at 95% relative humidity” value in data set [5] (setting [12]) is on record as “about 15 min”. Besides, the “relative stability of the phase” value in data set [6] (setting [12]) is recorded as “only a metastable one”. The “time to complete conversion to the dihydrate on storage” value in data set [9] is no more than 3 weeks.
